# Source: patent US12509460B2 (Skyhawk Therapeutics, Inc., priority 2019, dated 2025)
# Where two headings read alike, the source gives them in different places.
# Experiments:
# [1] = system: SMN protein in spinal muscular atrophy (SMA) patient fibroblasts (GM03813, Coriell); experiment: SMN protein assay, Mesoscale Discovery (MSD); type: cell-based, human; settings: for EC50: read-out: SMN2 protein EC50
# Experimental: Example A12: SMN Protein Assay
# Compounds are tested on spinal muscular atrophy (SMA) patient fibroblasts (GM03813, Coriell) at doses ranging from 2.5 μM to 0.6 nM. 7000 cells/well are seeded in 96-well plates. Compounds are incubated for 48 hours and the cells were lysed with 100 μL of lysis buffer. 20 μL of lysate is used for SMN protein measurement by Mesoscale Discovery (MSD) assay developed by PharmOptima (Michigan). A standard curve prepared with SMN protein ranging from 1 μg/ml to 19.5 pg/ml is used in each MSD plate to calculate the absolute SMN protein amount in each sample.
# MDR1 (P-gp) = experiment: Blood-brain-barrier (BBB) penetration potential via MDCK-MDR1 permeability assay; settings: dog; for Papp A→B at 120 min, 5 μM: MDCK-MDR1, pH 7.4, MDCK-MDR1: Papp A-B; for Papp B→A at 120 min, 5 μM: MDCK-MDR1, pH 7.4, MDCK-MDR1: Papp B-A; for efflux ratio at 120 min, 5 μM: MDCK-MDR1, pH 7.4, MDCK-MDR1: Efflux
# [2] = system: MDR1-MDCK cell monolayers; experiment: as above
# MDR1 = experiment: as above; settings: dog, MDCK-MDR1, pH 7.4, MDCK-MDR1: Efflux
# [3] = system: mHTT protein in GM04724 (CAG 70/20) Huntington's disease patient lymphoblast cells; experiment: mHTT protein assay, 2B7-MW1 assay via Mesoscale Discovery (MSD); type: cell-based, human
# Experimental: Example A10: mHTT Protein Assay
# Compounds are tested on GM04724 (CAG 70/20) Huntington's disease patient lymphoblast cells at doses ranging from 10 μM to 0.6 nM. 4,500 cells/well are seeded in 384 well plates. One plate replica is carried out for parallel viability testing by CellTiter Glo (CTG). Compounds are incubated for 48 hours. mHTT protein levels are assessed by the 2B7-MW1 assay via Mesoscale Discovery (MSD) as previously reported (Macdonald et al., 2014). The antibody pair is comprised of previously characterized monoclonals (2B7 and MW1) interrogating two regions for HTT conformation and biological properties: the N, 17 domain and the polyQ domain (Baldo et al., 2012; Ko et., 2001). 2B7-MW1 is […] specific levels of HTT at the time of treatment. 2B7-MW1 is dependent on polyQ expansion (e.g., the higher the expansion the higher the signal) and on mHTT size (e.g., a similar polyQ will give higher signal with smaller HTT size). The viability readout is carried out by CTG according to the manufacturer's instructions.
# [4] = SMA patient fibroblasts GM03813, 48 hours, MSD
# [5] = GM04724 Huntington's disease patient lymphoblasts
# [6] = GM04724 (CAG 70/20) Huntington's disease patient lymphoblasts
# [7] = SMA patient fibroblasts (GM03813), 48 hours
Structure (SMILES),"EC50 [1, 4] [nM]","Papp A→B at 120 min, 5 μM (MDR1 (P-gp); A-B direction) [×10⁻⁶ cm/s]","Papp B→A at 120 min, 5 μM (MDR1 (P-gp); B-A direction) [×10⁻⁶ cm/s]",MDCK-MDR1: % Recov A-B ([2]; A-B direction) [%],MDCK-MDR1: % Recov B-A ([2]; B-A direction) [%],"efflux ratio at 120 min, 5 μM (MDR1; efflux ratio)","EC50 [3, 5] [nM]",also measured
"CN(c1ccc(-c2cc(F)c(-c3ccn(C)c(=O)c3)cc2O)nn1)[C@H]1C[C@@H]2CC(F)(F)[C@H](C1)N2 [Compound 22B, 4-(4-(6-(((1R,3S,5S)-6,6-difluoro-8-azabicyclo[3.2.1]octan-3-yl)(methyl)amino)pyridazin-3-yl)-2-fluoro-5-hydroxyphenyl)-1-methylpyridin-2(1H)-one]",51 to 100,2.83,87.7,88,95,31,–,–
"CN(c1ccc(-c2ccc(-c3cnn(C)c3)cc2O)nn1)[C@@H]1C[C@H]2CCC[C@H](N2)[C@@H]1F [Compound 15A, 2-(6-(((1S,2S,3R,5R)-2-fluoro-9-azabicyclo[3.3.1]nonan-3-yl)(methyl)amino)pyridazin-3-yl)-5-(1-methyl-1H-pyrazol-4-yl)phenol]",0.01 to 15,2.76,34.4,61,70,12,0.01 to 15,–
"Cc1cnc(-c2ccc(-c3ccc(N(C)[C@@H]4C[C@H]5CCC[C@H](N5)[C@@H]4F)nn3)c(O)c2)cn1 [Compound 26A, 2-(6-(((1S,2S,3R,5R)-2-fluoro-9-azabicyclo[3.3.1]nonan-3-yl)(methyl)amino)pyridazin-3-yl)-5-(5-methylpyrazin-2-yl)phenol]",51 to 100,2.09,43.6,65,77,21,101 to 500,–
"CN(c1ccc(-c2ccc(-c3cnc(C#N)cn3)cc2O)nn1)[C@@H]1C[C@H]2CCC[C@H](N2)[C@@H]1F [Compound 28A, 5-(4-(6-(((1S,2S,3R,5R)-2-fluoro-9-azabicyclo[3.3.1]nonan-3-yl)(methyl)amino)pyridazin-3-yl)-3-hydroxyphenyl) pyrazine-2-carbonitrile]",–,1.41,28.4,40,61,20,16 to 50,"SMN2 protein EC50 [1, 4]: E (501 ≤ E ≤ 10.000)"
"CN(c1ccc(-c2cc3ccncc3cc2O)nn1)[C@@H]1C[C@H]2CC(F)(F)[C@@H](C1)N2 [Compound 125A, 6-(6-(((1S,3R,5R)-6,6-difluoro-8-azabicyclo[3.2.1]octan-3-yl)(methyl)amino)pyridazin-3-yl)isoquinolin-7-ol]",–,–,–,–,–,–,–,"EC50 [3, 6]: 101 to 500 nM; EC50 [1, 7]: 51 to 100 nM; efflux ratio at 120 min, 5 μM (MDR1 (P-gp)): 3; Papp A→B at 120 min, 5 μM (MDR1 (P-gp); A-B): 14.1 ×10⁻⁶ cm/s; Papp B→A at 120 min, 5 μM (MDR1 (P-gp); B-A): 43.3 ×10⁻⁶ cm/s; MDCK-MDR1: % Recov A-B ([2]; A-B): 63%; MDCK-MDR1: % Recov B-A ([2]; B-A): 87%"
"CN(C)C(=O)c1cc2cc(O)c(-c3ccc(N(C4CC4)[C@H]4C[C@@H]5CC[C@@H](N5)[C@H]4F)nn3)cc2o1 [Compound 86B, 6-(6-(cyclopropyl((1R,2R,3S,5S)-2-fluoro-8-azabicyclo[3.2.1]octan-3-yl)amino)pyridazin-3-yl)-5-hydroxy-N,N-dimethylbenzofuran-2-carboxamide]",51 to 100,0.81,53.6,88,92,66,16 to 50,–
"CN(c1ccc(-c2ccc(C3=CCCC3)cc2O)nn1)[C@@H]1C[C@H]2CC[C@H](N2)[C@@H]1F [Compound 34A, 5-(cyclopent-1-en-1-yl)-2-(6-(((1S,2S,3R,5R)-2-fluoro-8-azabicyclo[3.2.1]octan-3-yl)(methyl)amino)pyridazin-3-yl)phenol]",16 to 50,0.63,1.05,8,55,2,101 to 500,–
"CN(c1ccc(-c2ccc(-c3cnn(C)c3)cc2O)nn1)[C@H]1C[C@H]2CC(F)(F)[C@H](C1)N2 (single isomer, unassigned) [Compound 3B]",101 to 500,16.3,22.7,80,71,–,51 to 100,"efflux ratio at 120 min, 5 μM (MDR1 (P-gp); efflux ratio): 1"
"CN(c1ccc(-c2cc3c(=O)n(C)ccc3s2)nn1)[C@@H]1C[C@H]2CC[C@H](N2)[C@@H]1F (single isomer, unassigned) [Compound 68A]",51 to 100,0.41,45.6,92,78,111,101 to 500,–
CN(c1ccc(-c2ccc(-c3cnn(C(F)F)c3)cc2O)nn1)[C@H]1C[C@@H]2CCC[C@@H](N2)[C@H]1F [Compound 21B],0.01 to 15,1.73,30.4,39,68,18,16 to 50,–
"CN(c1ccc(-c2cc3ncn(C)c(=O)c3cc2O)nn1)[C@@H]1C[C@H]2CC[C@@H]([C@@H]1F)N2C [Compound 101A, 7-(6-(((1S,2S,3R,5R)-2-fluoro-8-methyl-8-azabicyclo[3.2.1]octan-3-yl)(methyl)amino)pyridazin-3-yl)-6-hydroxy-3-methylquinazolin-4(3H)-one]",–,–,–,–,–,–,–,"EC50 [3, 6]: 101 to 500 nM; EC50 [1, 7]: 51 to 100 nM; Papp A→B at 120 min, 5 μM (MDR1 (P-gp); A-B): 2.81 ×10⁻⁶ cm/s; Papp B→A at 120 min, 5 μM (MDR1 (P-gp); B-A): 72.6 ×10⁻⁶ cm/s; MDCK-MDR1: % Recov A-B ([2]; A-B): 101%; MDCK-MDR1: % Recov B-A ([2]; B-A): 109%; efflux ratio at 120 min, 5 μM (MDR1): 26"
"Cc1cnc(-c2ccc(-c3ccc(N(C)[C@@H]4C[C@H]5CC[C@H](N5)[C@@H]4F)nn3)c(O)c2)o1 [Compound 48A, 2-(6-(((1S,2S,3R,5R)-2-fluoro-8-azabicyclo[3.2.1]octan-3-yl)(methyl)amino)pyridazin-3-yl)-5-(5-methyloxazol-2-yl)phenol]",0.01 to 15,3.71,29,58,76,8,51 to 100,–
"Cc1nc2cc(-c3ccc(N(C)[C@@H]4C[C@H]5CC[C@H](N5)[C@@H]4F)nn3)c(O)cc2c(=O)n1CC(F)(F)F [Compound 113A, 7-(6-(((1S,2S,3R,5R)-2-fluoro-8-azabicyclo[3.2.1]octan-3-yl)(methyl)amino)pyridazin-3-yl)-6-hydroxy-2-methyl-3-(2,2,2-trifluoroethyl)quinazolin-4(3H)-one]",–,–,–,–,–,–,–,"mHTT protein EC50 [3, 6]: E (501 ≤ E ≤ 10.000); EC50 [1, 7]: 0.01 to 15 nM; Papp A→B at 120 min, 5 μM (MDR1 (P-gp); A-B): 0.2 ×10⁻⁶ cm/s; Papp B→A at 120 min, 5 μM (MDR1 (P-gp); B-A): 66.9 ×10⁻⁶ cm/s; MDCK-MDR1: % Recov A-B ([2]; A-B): 96%; MDCK-MDR1: % Recov B-A ([2]; B-A): 99%; efflux ratio at 120 min, 5 μM (MDR1): 333"
"Cc1nc2cc(-c3ccc(N(C)[C@@H]4C[C@H]5CC[C@H](N5)[C@@H]4F)nn3)c(O)cc2o1 [Compound 118A, 5-(6-(((1S,2S,3R,5R)-2-fluoro-8-azabicyclo[3.2.1]octan-3-yl)(methyl)amino)pyridazin-3-yl)-2-methylbenzo[d]oxazol-6-ol]",–,–,–,–,–,–,–,"EC50 [3, 6]: 16 to 50 nM"
"Cc1nc2cc(-c3ccc(N(C)[C@H]4C[C@@H]5CC[C@@H](N5)[C@H]4F)nn3)c(O)cc2o1 [Compound 118B, 5-(6-(((1R,2R,3S,5S)-2-fluoro-8-azabicyclo[3.2.1]octan-3-yl)(methyl)amino)pyridazin-3-yl)-2-methylbenzo[d]oxazol-6-ol]",–,–,–,–,–,–,–,"EC50 [3, 6]: 0.01 to 15 nM"
"CC#Cc1ccc(-c2ccc(N(C)C3CC4CCC(N4)C3F)nn2)c(O)c1 (single isomer, unassigned) [Compound 30B]",101 to 500,10.6,11,38,69,–,51 to 100,"efflux ratio at 120 min, 5 μM (MDR1 (P-gp); efflux ratio): 1"
